Like-named read-outs stand apart in the source and are kept apart here.
Assays:
A431 (WT) = assay: A431 cells proliferation assay (CellTiter Glo); type: cell-based; settings: Homo sapiens, A-431; cell proliferation, 72 h
Experimental: Test 4 A431 Cells Proliferation Assay
DMEM and 10% FBS and 1% PS.
(§1) a) The medium was preheated in a 37° C. water bath in advance.
(§2) b) Remove the cryogenic vials from the liquid nitrogen tank, quickly put it into a 37° C. water bath, and completely melt it in 1 min.
(§3) c) Transfer the cell suspension to a 15 mL centrifuge tube containing 8 mL medium, centrifuge 1000 rpm, 5 min.
(§4) d) Discard the supernatant, resuspend the cells in 1 mL medium, and transfer to a 75 cm^2 flask containing 15 mL medium, culture the cells in an incubator at 37° C., 5% CO2.
(§5) b) Collect cell to a 15 mL centrifuged tube, centrifuge at 1000 rpm for 5 min. Discard the supernatant, count, and make the cell density at 1×10^4 cells/mL, then place it in a 37° C., 5% CO2 incubator.
a) The test compound (20 mM stock solution) was diluted to 2 mM with 100% DMSO as starting concentration then 3-fold serial diluted with “9+0” concentrations. in a 96-well dilution plate (Cat # P-05525, Labcyte);
b) The above compound solution was diluted 1:40 times with culture medium to prepare a 5 fold working solution;
(§6) a) Take cells in log phase growth, centrifuge at 1000 rpm for 5 min, then resuspend the cells with culture medium, then count cells;
b) Cells were seeded to 96-well cell culture plate with density at 5000 cells/well;
a) Compounds prepared at step 2 were added to cell plate with 40 μL per well, the final concentrations were 10000, 3333,1111.1, 370.4, 123.5, 41.2, 13.7, 4.6, 1.5 and 0 nM, and the final concentration of DMSO was 0.5%. The blank control well was a culture medium (0.5% DMSO);
(§7) b) The cells were incubated for an additional 72 h in the incubator.
a) Remove the 96-well cell culture plate and add 60 μl of CTG reagent (CellTiter Glo kit, promega, Cat # G7573).
(§8) b) Plate was shaked for 2 min and then let it cool for 10 min at room temperature.
c) The Luminescence signal value was read using a PerkinElmer reader.
Experimental Data Analysis
(§9) Data were analyzed using GraphPad Prism 6.0 software to obtain a fitted curve of compound activity.
(§10) Fit the Compound IC50 from non-linear regression equation:
Y=Bottom+(Top-Bottom)/(1+10((LogIC50-X)×HillSlope));
(§11) X: The log of the concentration of the compound; Y: Luminescence value.
The cells proliferation assay results are expressed with IC50, shown as Table 3.

EGFR Del19/T790M/C797S = EGFR Del19/T790M/C797S (Homo sapiens, UniProt P00533, T790M/C797S, form not given); assay: Kinase assay (mobility shift), EGFR Del19/T790M/C797S; type: biochemical
Experimental: (§12) Test 1 Kinase Assay for EGFR Del19/T790M/C797S and EGFR Wildtype
(§13) Enzyme reaction protocol are as follows:
(§14) 1. Preparing 1* Kinase buffer as followed.
(§15) 2. Preparing Compound Concentration Gradient: Compounds were tested at a concentration of 300 nM, diluted to 100-fold final concentration in 100% DMSO solution in 96-well plates, and compounds were diluted 3 times with Precision, 10 concentrations. Each concentration of the compound was then further diluted to a 5-fold final concentration of the intermediate dilution solution using 1* Kinase buffer.
(§16) 3.5 μL of each of the prepared intermediate dilution compounds was separately added to the compound wells of the 384-well plate, and each concentration was tested for duplicate wells; 5 μL of 5% DMSO was added to the negative control wells and the positive control wells, respectively.
(§17) 4. 2.5-fold final concentration of the kinase solution was prepared using 1*Kinase buffer.
(§18) 5. Add 10 μL of 2.5-fold final concentration of kinase solution to the compound well and positive control well; add 10 μL of 1*Kinase buffer to the negative control well.
(§19) 6. Centrifuge at 1000 rpm for 30 seconds, shake the reaction plate and incubate for 10 minutes at room temperature.
(§20) 7. A mixed solution of 2.5 times the final concentration of ATP and Kinase substrate (5-FAM-EEPLYWSFPAKKK-CONH2) was prepared using 1*Kinase buffer.
(§21) 8. 10 μL of a 2.5-fold final concentration of a mixed solution of ATP and a substrate was added to initiate the reaction.
(§22) 9. Centrifuge the 384-well plate at 1000 rpm for 30 seconds, mix by shaking, and incubate at room temperature for the corresponding time.
(§23) 10. Add 30 μL of the stop solution to stop the kinase reaction, centrifuge at 1000 rpm for 30 seconds, and mix by shaking.
(§24) 11. Read the conversion rate with Caliper EZ Reader.
(§25) Convert conversion values to inhibition values:
(§26) Percent inhibition 32 (max-conversion)/(max-min)*100.
(§27) “max” stands for the mean value of the positive control well ratio; “min” stands for the mean value of the negative control well.
(§28) Fit the data in log(inhibitor) vs. response Variable slope of GraphPad Prism 5 to obtain IC50 values.
(§29) Equation used is: Y=Bottom+(Top-Bottom)/(1+(IC50/X)^HillSlope)

Ba/F3-Del19/T790M/C797S = Ba/F3-Del19/T790M/C797S (Homo sapiens, UniProt P00533, T790M/C797S, cells depend on it, form not given); assay: Ba/F3-Del19/T790M/C797S cells proliferation assay (CellTiter Glo); type: cell-based; settings: cell proliferation, 72 h, read-out: Ba/F3-Del19/T790M/C797S IC50
Experimental: (§30) a) The medium was preheated in a 37°0 C. water bath in advance.
as §2, §3, §4, §1, §5
(§31) a) The test compound (20 mM stock solution) was diluted to 200uM with 100% DMSO as starting concentration then 3-fold serial diluted with “9+0” concentrations. in a 96-well dilution plate (Cat # P-05525, Labcyte);
(§32) b) The above compound solution was diluted 1:20 times with culture medium to prepare a 10 fold working solution;
as §6
(§33) b) Cells were seeded to 96-well cell culture plate with density at 2000 cells/well;
(§34) a) Compounds prepared at step 2 were added to cell plate with 15 μL per well, the final concentrations were 1000,333, 111.1, 37,12.3, 4.1, 1.4, 0.5, 0.2 and 0 nM, and the final concentration of DMSO was 0.5%. The blank control well was a culture medium (0.5% DMSO);
as §7
(§35) a) Remove the 96-well cell culture plate and add 50 μl of CTG reagent (CellTiter Glo kit, promega, Cat # G7573).
as §8
(§36) c) The Luminescence signal value was read using a PerkinElmer reader. Experimental data analysis
as §9, §10
(§37) Y=Bottom+(Top-Bottom)/(1+10((LogIC50-X)×Hill Slope));
as §11
(§38) The cells proliferation assay results are expressed with IC50, shown as Table 2.

Ba/F3-L858R/T790M/C797S = Ba/F3-L858R/T790M/C797S (Homo sapiens, UniProt P00533, T790M/C797S/L858R, cells depend on it); assay: Ba/F3-L858R/T790M/C797S cells proliferation assay (CellTiter Glo); type: cell-based; settings: cell proliferation, 72 h, read-out: Ba/F3-L858R/T790M/C797S IC50
Experimental: as §30, §2, §3, §4, §1, §5, §31, §32, §6, §33, §34, §7, §35, §8, §36, §9, §10, §37, §11, §38

[1] = Pharmacokinetic assay, oral administration; type: in vivo; settings: rat, male SD rats, p.o. 5 mg/kg, plasma, formulation differs per row
Experimental: Test 5 Pharmacokinetic Assay
Male SD rats, oral administration (intragastric administration), 3 in each group. Animals administered by gavage were fasted overnight before the experiment, and the fasting time was from at least 12 hours before administration to 4 hours after administration. The blood was collected using the orbital vein. Time of blood collection by oral administration: 15 min, 30 min, 1 h, 2 h, 4 h, 7 h, 24 h. The blood collection volume was 300 uL, and after anticoagulation with 2.0% EDTA, the blood was centrifuged at 4000 rpm for 5 min, and the blood plasma was taken for about 100 uL, and placed in −20° C. for examination. The plasma sample was analyzed using liquid chromatography tandem mass spectrometry (LC-MS/MS). Plasma concentration-time data for individual animals were analyzed using WinNonlin (V4.1, Pharsight) software with a non-compartmental model and the pharmacokinetic parameters of the test compounds were calculated.

EGFR L858R/T790M/C797S = EGFR L858R/T790M/C797S (Homo sapiens, UniProt P00533, C797S/L858R/T790M); assay: Kinase assay (mobility shift), EGFR L858R/T790M/C797S; type: biochemical; settings: numeric values
Experimental: [Worded in the source for another variant; this variant is reported under the same test.] as §12, §13, §14, §15, §16, §17, §18, §19, §20, §21, §22, §23, §24, §25, §26, §27, §28, §29

Chain of Ba/F3-L858R/T790M/C797S (P00533 whole entry T790M/C797S/L858R): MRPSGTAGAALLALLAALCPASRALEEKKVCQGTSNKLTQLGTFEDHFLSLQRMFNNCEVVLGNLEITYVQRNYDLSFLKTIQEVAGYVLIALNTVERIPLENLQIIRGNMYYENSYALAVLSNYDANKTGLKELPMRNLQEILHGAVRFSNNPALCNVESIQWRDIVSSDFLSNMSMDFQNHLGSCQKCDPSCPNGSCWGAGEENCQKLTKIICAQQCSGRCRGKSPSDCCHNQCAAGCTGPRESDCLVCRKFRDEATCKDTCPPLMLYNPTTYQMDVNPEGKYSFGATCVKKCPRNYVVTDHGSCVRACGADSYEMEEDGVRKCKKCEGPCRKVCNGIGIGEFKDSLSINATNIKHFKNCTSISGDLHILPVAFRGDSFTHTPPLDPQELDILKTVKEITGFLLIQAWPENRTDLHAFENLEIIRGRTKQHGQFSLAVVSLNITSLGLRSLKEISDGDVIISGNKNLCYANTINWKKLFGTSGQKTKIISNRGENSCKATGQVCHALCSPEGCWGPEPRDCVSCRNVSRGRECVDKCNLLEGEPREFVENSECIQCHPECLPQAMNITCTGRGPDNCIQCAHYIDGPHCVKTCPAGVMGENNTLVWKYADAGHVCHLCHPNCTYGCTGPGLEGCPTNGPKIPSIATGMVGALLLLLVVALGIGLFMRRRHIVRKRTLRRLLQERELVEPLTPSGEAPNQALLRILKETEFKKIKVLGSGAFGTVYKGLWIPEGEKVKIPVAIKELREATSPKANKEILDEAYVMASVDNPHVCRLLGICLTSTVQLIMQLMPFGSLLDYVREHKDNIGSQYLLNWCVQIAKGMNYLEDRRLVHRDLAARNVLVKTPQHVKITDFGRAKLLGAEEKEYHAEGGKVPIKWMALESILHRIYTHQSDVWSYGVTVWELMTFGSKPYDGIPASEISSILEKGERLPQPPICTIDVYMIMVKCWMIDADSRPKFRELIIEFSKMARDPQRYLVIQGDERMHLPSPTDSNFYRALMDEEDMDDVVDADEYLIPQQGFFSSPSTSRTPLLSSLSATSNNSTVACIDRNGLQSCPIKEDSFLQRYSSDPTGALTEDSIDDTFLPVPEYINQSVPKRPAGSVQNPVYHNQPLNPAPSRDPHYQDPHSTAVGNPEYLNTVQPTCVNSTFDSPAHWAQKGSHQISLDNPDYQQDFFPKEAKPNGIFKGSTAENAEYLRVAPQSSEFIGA
Chain of Ba/F3-Del19/T790M/C797S (P00533 with tags, fused parts or gaps DEL746-750/T790M/C797S, form open): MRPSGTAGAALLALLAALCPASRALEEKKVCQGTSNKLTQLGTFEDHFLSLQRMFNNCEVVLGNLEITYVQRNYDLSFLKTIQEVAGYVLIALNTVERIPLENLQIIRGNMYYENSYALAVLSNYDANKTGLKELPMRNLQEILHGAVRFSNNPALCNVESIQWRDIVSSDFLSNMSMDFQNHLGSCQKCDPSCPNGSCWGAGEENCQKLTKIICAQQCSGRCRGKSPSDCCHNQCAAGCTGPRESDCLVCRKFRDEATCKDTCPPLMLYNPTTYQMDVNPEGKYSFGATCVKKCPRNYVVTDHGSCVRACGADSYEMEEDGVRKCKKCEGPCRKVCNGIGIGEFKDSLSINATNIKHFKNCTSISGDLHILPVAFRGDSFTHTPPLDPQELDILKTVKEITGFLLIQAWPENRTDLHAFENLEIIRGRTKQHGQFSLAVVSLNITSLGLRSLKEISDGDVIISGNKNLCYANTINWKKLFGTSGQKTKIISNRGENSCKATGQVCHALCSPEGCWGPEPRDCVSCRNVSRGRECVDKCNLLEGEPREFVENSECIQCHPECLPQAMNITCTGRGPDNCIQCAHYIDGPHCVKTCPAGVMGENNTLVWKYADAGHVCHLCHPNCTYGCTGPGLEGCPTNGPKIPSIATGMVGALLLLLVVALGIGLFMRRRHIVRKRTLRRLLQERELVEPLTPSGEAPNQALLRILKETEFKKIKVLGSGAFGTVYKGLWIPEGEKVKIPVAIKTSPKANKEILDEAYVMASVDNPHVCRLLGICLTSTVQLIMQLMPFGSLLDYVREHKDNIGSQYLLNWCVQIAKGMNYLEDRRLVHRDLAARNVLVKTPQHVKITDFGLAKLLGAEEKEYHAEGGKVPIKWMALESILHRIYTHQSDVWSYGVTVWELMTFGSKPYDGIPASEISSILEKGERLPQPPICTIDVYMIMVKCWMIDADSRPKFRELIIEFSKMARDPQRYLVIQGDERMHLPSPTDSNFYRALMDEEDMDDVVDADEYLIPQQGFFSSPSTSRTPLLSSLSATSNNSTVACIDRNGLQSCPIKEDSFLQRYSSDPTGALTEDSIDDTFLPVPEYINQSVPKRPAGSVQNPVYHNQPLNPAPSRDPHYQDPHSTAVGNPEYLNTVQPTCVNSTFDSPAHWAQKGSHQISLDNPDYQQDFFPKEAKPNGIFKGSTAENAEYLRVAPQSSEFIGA
Chain of EGFR Del19/T790M/C797S (P00533 with tags, fused parts or gaps DEL746-750/T790M/C797S, form open): as above
Chain of EGFR L858R/T790M/C797S (P00533 25-1210 T790M/C797S/L858R): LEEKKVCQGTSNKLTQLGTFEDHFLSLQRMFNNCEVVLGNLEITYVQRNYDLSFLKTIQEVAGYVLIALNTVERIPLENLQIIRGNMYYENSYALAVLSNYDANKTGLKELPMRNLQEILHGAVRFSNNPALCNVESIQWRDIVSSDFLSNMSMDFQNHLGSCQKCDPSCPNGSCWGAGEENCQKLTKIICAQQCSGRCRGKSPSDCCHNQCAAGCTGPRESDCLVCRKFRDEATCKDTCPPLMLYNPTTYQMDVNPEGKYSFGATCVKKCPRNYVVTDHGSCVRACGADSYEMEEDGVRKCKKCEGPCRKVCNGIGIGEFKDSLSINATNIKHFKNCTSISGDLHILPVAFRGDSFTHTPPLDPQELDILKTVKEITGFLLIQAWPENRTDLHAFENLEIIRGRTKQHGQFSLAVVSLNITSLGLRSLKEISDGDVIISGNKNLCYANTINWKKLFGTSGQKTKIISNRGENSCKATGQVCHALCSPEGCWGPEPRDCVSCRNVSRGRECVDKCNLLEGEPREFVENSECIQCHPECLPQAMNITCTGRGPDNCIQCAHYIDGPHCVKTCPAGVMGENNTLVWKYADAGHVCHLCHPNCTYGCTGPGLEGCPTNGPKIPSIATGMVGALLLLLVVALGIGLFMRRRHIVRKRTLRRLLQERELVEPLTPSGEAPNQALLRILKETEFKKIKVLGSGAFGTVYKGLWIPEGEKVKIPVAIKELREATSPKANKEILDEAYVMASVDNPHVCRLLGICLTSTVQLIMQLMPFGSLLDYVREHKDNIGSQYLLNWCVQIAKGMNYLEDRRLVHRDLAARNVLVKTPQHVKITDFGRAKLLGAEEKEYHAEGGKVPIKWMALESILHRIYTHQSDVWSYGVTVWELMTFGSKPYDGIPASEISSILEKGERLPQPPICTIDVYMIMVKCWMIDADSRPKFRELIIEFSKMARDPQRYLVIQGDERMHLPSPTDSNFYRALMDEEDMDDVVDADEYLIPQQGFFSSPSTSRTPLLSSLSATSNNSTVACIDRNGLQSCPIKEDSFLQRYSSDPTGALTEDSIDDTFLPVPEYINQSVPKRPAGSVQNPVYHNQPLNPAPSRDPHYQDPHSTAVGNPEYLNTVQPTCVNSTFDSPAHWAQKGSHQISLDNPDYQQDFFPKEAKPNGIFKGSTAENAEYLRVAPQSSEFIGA

## CP(C)(=O)c1ccccc1Nc1nc(Nc2ccc(N3CCC4(CC3)CC(N3CCCC3)C4)c(Cl)c2)ncc1Cl [Example 33, (2-((5-chloro-2-((3-chloro-4-(2-(pyrrolidin-1-yl)-7-azaspiro[3.5]nonan-7-yl)phenyl)amino)pyrimidin-4-yl)amino)phenyl)dimethylphosphine oxide]
A431 (WT)
  IC50: 47 nM
EGFR Del19/T790M/C797S
  IC50: 0.4 nM
Ba/F3-Del19/T790M/C797S; numeric values
  GI50: 9.7 nM
Ba/F3-L858R/T790M/C797S; numeric values
  GI50: 11.7 nM

## CN(C)C1CC2(CCN(c3ccc(Nc4ncc(Cl)c(Nc5ccccc5P(C)(C)=O)n4)cc3Cl)CC2)C1 [Example 6, (2-((5-chloro-2-((3-chloro-4-(2-(dimethylamino)-7-azaspiro[3.5]nonan-7-yl)phenyl)amino)pyrimidin-4-yl)amino)phenyl)dimethylphosphine oxide]
A431 (WT)
  IC50: 44.7 nM
EGFR Del19/T790M/C797S
  IC50: 0.37 nM
Ba/F3-Del19/T790M/C797S; class symbols
  GI50: 10 to 50 nM
Ba/F3-L858R/T790M/C797S; class symbols
  GI50: 10 to 50 nM
[1]
  AUC(0-t): 8810 ng·h/mL
  Cmax: 741 ng/mL
  Tmax: 4 h
  half-life: 3 h
EGFR L858R/T790M/C797S
  IC50: 1.3 nM

## CN(C)C1CC2(CCN(c3ccc(Nc4ncc(Cl)c(Nc5ccccc5P(C)(C)=O)n4)cc3)CC2)C1 [Example 17, (2-((5-chloro-2-((4-(2-(dimethylamino)-7-azaspiro[3.5]nonan-7-yl)phenyl)amino)pyrimidin-4-yl)amino)phenyl)dimethylphosphine oxide]
A431 (WT)
  IC50: 35 nM
EGFR Del19/T790M/C797S
  IC50: 0.7 nM
Ba/F3-Del19/T790M/C797S; class symbols
  GI50: ≤ 10 nM
Ba/F3-L858R/T790M/C797S; class symbols
  GI50: ≤ 10 nM

## CN(C)[C@@H]1CCN(C2CC3(CCN(c4ccc(Nc5ncc(Cl)c(Nc6ccccc6P(C)(C)=O)n5)cc4Cl)CC3)C2)C1 [Example 34, (R)-(2-((5-chloro-2-((3-chloro-4-(2-(3-(dimethylamino)pyrrolidin-1-yl)-7-azaspiro[3.5]nonan-7-yl)phenyl)amino)pyrimidin-4-yl)amino)phenyl)dimethylphosphine oxide]
A431 (WT)
  IC50: 53 nM
EGFR Del19/T790M/C797S
  IC50: 0.53 nM
Ba/F3-Del19/T790M/C797S; numeric values
  GI50: 14.7 nM
Ba/F3-L858R/T790M/C797S; numeric values
  GI50: 21.7 nM

## CN(C)C1CCC2(CC1)CN(c1ccc(Nc3ncc(Cl)c(Nc4ccccc4P(C)(C)=O)n3)cc1)C2 [Example 13, (2-((5-chloro-2-((4-(7-(dimethylamino)-2-azaspiro[3.5]nonan-2-yl)phenyl)amino)pyrimidin-4-yl)amino)phenyl)dimethylphosphine oxide]
A431 (WT)
  IC50: 41.6 nM
EGFR Del19/T790M/C797S
  IC50: 0.6 nM
Ba/F3-Del19/T790M/C797S; class symbols
  GI50: ≤ 10 nM
Ba/F3-L858R/T790M/C797S; class symbols
  GI50: ≤ 10 nM
EGFR L858R/T790M/C797S
  IC50: 1.3 nM

From patent US20220064196A1, “EGFR Inhibitors, Compositions and Methods Thereof” (Betta Pharmaceuticals Co., Ltd., priority 2019, published 2022)
